# Measured values published in patent publication US10723733B2, “Hepatitis B antiviral agents” (Enanta Pharmaceuticals, Inc., priority 2017, dated 2020).
# Tested on: HBV
# Test: HepAD38 antiviral assay: reduction of viral product accumulation (virion DNA by qPCR, HBsAg/HBeAg by ELISA)
# Format: cell-based
# Details: Hepatitis B virus, 120 h; HepAD38 cells; 50% reduction of viral product accumulation vs no drug controls; five days after compound addition; class symbols
# Description: Methods: HepAD38 cells are maintained as previously reported (Ladner et al, Antimicrob. Agents Chemother. 1997, […], 1715). Briefly, cells are passaged upon attaining confluency in DMEM/F12 media in the presence of 10% FBS, Penn/Strep, 250 μg/mL G418, and 1 μg/ml tetracycline. Novel compounds are screened by first washing cells three times with PBS to remove tetracycline, and plating in 96 well plates at 35,000 cells/well. Compounds dissolved in DMSO are then diluted 1:200 into wells containing cells. Five days after compound addition, material is harvested for analysis. For an extended 8 day analysis, cells are plated and treated as described above, but media and compound are refreshed on d2 and d5 post initial treatment.
# On harvest day, virion DNA is obtained by lysing with Sidestep Lysis and Stabilization Buffer and then quantified via quantitative real time PCR. Commercially available ELISA kits are used to quantitate the viral proteins HBsAg (Alpco) or HbeAg (US Biological) by following the manufacturer's recommended protocol after diluting samples to match the linear range of their respective assays. Irrespective of readout, compound concentrations that reduce viral product accumulation in the cell lysates or supernatants by 50% relative to no drug controls (EC50) are reported; EC50 ranges are as follows: A<0.1 μM; B 0.1-1 μM; C>1 μM.
row,SMILES,EC50 [nM]
1,[N-]=[N+]=NC[C@@]1(O)CC2=C(c3ccn(C(F)F)n3)[C@H](c3ccc(F)cc3Cl)N=C(c3nccs3)N2C1 [Example 113],100 to 1000
2,CC(C)(C)OC(=O)N[C@H]1CC2=C(c3cnn(C(F)F)c3)[C@H](c3ccc(F)cc3Cl)N=C(c3nccs3)N2C1 [Example 2],100 to 1000
3,O=S(=O)(N[C@H]1CC2=C(c3cnn(C(F)F)c3)[C@H](c3ccc(F)cc3Cl)N=C(c3nccs3)N2C1)N1CCCC1 [Example 19],< 100
4,OC[C@@]1(F)CC2=C(c3cnn(C(F)F)c3)[C@H](c3ccc(F)cc3Cl)N=C(c3nccs3)N2C1 [Example 149],100 to 1000
5,CC(=O)OC[C@@]1(N=[N+]=[N-])CC2=C(c3cnn(C(F)F)c3)[C@H](c3ccc(F)cc3Cl)N=C(c3nccs3)N2C1 [Example 59],< 100
6,COC(=O)OC[C@]1(CC2=C(c3ccn(C(F)F)n3)[C@H](c3ccc(F)cc3Cl)N=C(c3nccs3)N2)COC(=O)N1 [Example 96],100 to 1000
7,O=C[C@@]1(CC2=C(c3ccn(C(F)F)n3)[C@H](c3ccc(F)cc3Cl)N=C(c3nccs3)N2)COC(=O)N1 [Example 91],< 100
8,[N-]=[N+]=N[C@]1(CO)CC2=C(c3cnn(C(F)F)c3)[C@H](c3ccc(F)cc3Cl)N=C(c3nccs3)N2C1 [Example 50],< 100
9,CS(=O)(=O)NCC1(F)CC2=C(c3cnn(C(F)F)c3)[C@H](c3ccc(F)cc3Cl)N=C(c3nccs3)N2C1 (stereo partly drawn) [Example 43],100 to 1000
10,[N-]=[N+]=NC[C@]1(O)CC2=C(c3ccn(C(F)F)n3)[C@H](c3ccc(F)cc3Cl)N=C(c3nccs3)N2C1 [Example 114],100 to 1000
11,CC(C)n1cc(C2=C3C[C@H](NS(=O)(=O)C4CC4)CN3C(c3nccs3)=N[C@H]2c2ccc(F)cc2Cl)cn1 [Example 5],< 100
12,COC(=O)N[C@@]1(CO)CC2=C(c3ccn(C(F)F)n3)[C@H](c3ccc(F)cc3Cl)N=C(c3nccs3)N2C1 [Example 84],< 100
13,CCCS(=O)(=O)N[C@H]1CC2=C(c3cnn(C(F)F)c3)[C@H](c3ccc(F)cc3Cl)N=C(c3nccs3)N2C1 [Example 22],< 100
14,O=S(=O)(N[C@H]1CC2=C(c3cnn(CC(F)(F)F)c3)[C@H](c3ccc(F)cc3Cl)N=C(c3nccs3)N2C1)C1CC1 [Example 7],< 100
15,COC(=O)[C@]1(CC2=C(c3ccn(C(F)F)n3)[C@H](c3ccc(F)cc3Cl)N=C(c3nccs3)N2)COC(=O)N1 [Example 93],< 100
16,CS(=O)(=O)OC[C@@]1(F)CC2=C(c3cnn(C(F)F)c3)[C@H](c3ccc(F)cc3Cl)N=C(c3nccs3)N2C1 [Example 35],100 to 1000

# Same assay, conditions: Hepatitis B virus, 120 h; HepAD38 cells; 50% reduction of viral product accumulation vs no drug controls; five days after compound addition; given as numeric bound
row,SMILES,EC50 [nM]
1,Fc1ccc([C@@H]2N=C(c3nccs3)N3C[C@@H](OCc4ccccc4)CC3=C2c2cnn(C(F)F)c2)c(Cl)c1 [Example 25],> 200
2,O=C1N[C@](CC2=C(c3ccn(C(F)F)n3)[C@H](c3ccc(F)cc3Cl)N=C(c3nccs3)N2)(C(=O)O)CO1 [Example 103],> 400
3,COC(=O)CNC(=O)[C@@]1(NC(=O)OC)CC2=C(c3ccn(C(F)F)n3)[C@H](c3ccc(F)cc3Cl)N=C(c3nccs3)N2C1 [Example 74],> 400
4,COC(=O)[C@@]1(O)CC2=C(c3ccn(C(F)F)n3)[C@H](c3ccc(F)cc3Cl)N=C(c3nccs3)N2C1 [Example 120],> 400
5,CC1(CNS(C)(=O)=O)CC2=C(c3cnn(C(F)F)c3)[C@H](c3ccc(F)cc3Cl)N=C(c3nccs3)N2C1 (stereo partly drawn) [Example 38],> 400
6,COC(=O)NC[C@@]1(O)CC2=C(c3ccn(C(F)F)n3)[C@H](c3ccc(F)cc3Cl)N=C(c3nccs3)N2C1 [Example 117],> 400
7,COC[C@]1(CC2=C(c3ccn(C(F)F)n3)[C@H](c3ccc(F)cc3Cl)N=C(c3nccs3)N2)COC(=O)N1 [Example 99],> 400
8,CCOC(=O)NC[C@H]1CN(CC2=C(c3ccn(C(F)F)n3)[C@H](c3ccc(F)cc3Cl)N=C(c3nccs3)N2)C(=O)O1 [Example 126],> 400
9,COC(=O)N[C@]1(C(C)O)CC2=C(c3ccn(C(F)F)n3)[C@H](c3ccc(F)cc3Cl)N=C(c3nccs3)N2C1 (stereo partly drawn) [Example 119],> 400
10,CNC(=O)OC[C@@]1(NC(=O)OC)CC2=C(c3ccn(C(F)F)n3)[C@H](c3ccc(F)cc3Cl)N=C(c3nccs3)N2C1 [Example 71],> 400
11,CC(C)(O)[C@]1(CC2=C(c3ccn(C(F)F)n3)[C@H](c3ccc(F)cc3Cl)N=C(c3nccs3)N2)COC(=O)N1 [Example 109],> 400
12,COC(=O)[C@]1(N)CC2=C(c3ccn(C(F)F)n3)[C@H](c3ccc(F)cc3Cl)N=C(c3nccs3)N2C1 [Example 75],> 400
13,CN(C)C(=O)NCC1CC2=C(c3cnn(C(F)F)c3)[C@H](c3ccc(F)cc3Cl)N=C(c3nccs3)N2C1 (stereo partly drawn) [Example 32],> 100
14,COC(=O)NCC1CC2=C(c3cnn(C(F)F)c3)[C@H](c3ccc(F)cc3Cl)N=C(c3nccs3)N2C1 (stereo partly drawn) [Example 31],> 100
15,Fc1ccc([C@@H]2N=C(c3nccs3)N3C(=C2c2cnn(C(F)F)c2)CC2CCCC23)c(Cl)c1 (stereo partly drawn) [Example 47],> 400
16,CCOC(=O)NC[C@@H]1CCC(=O)N1CC1=C(c2ccn(C(F)F)n2)[C@H](c2ccc(F)cc2Cl)N=C(c2nccs2)N1 [Example 135],> 400
17,CS(=O)(=O)OCC1CC2=C(c3cnn(C(F)F)c3)[C@H](c3ccc(F)cc3Cl)N=C(c3nccs3)N2C1 (stereo partly drawn) [Example 28],> 100
18,CC(=O)OC[C@]1(N=[N+]=[N-])CC2=C(c3cnn(C(F)F)c3)[C@H](c3ccc(F)cc3Cl)N=C(c3nccs3)N2C1 [Example 58],> 400
19,C=CCOC[C@]1(CC2=C(c3ccn(C(F)F)n3)[C@H](c3ccc(F)cc3Cl)N=C(c3nccs3)N2)COC(=O)N1 [Example 100],> 400
20,C=CC[C@@]1(COS(C)(=O)=O)CC2=C(c3cnn(C(F)F)c3)[C@H](c3ccc(F)cc3Cl)N=C(c3nccs3)N2C1 [Example 40],> 400
21,COC(=O)N[C@]1(C(=O)NCCC(=O)OC(C)(C)C)CC2=C(c3ccn(C(F)F)n3)[C@H](c3ccc(F)cc3Cl)N=C(c3nccs3)N2C1 [Example 80],> 400

row,SMILES,EC50 [nM]
1,COC(=O)[C@]1(NC(=O)OC(C)(C)C)CC2=C(c3ccn(C(F)F)n3)[C@H](c3ccc(F)cc3Cl)N=C(c3nccs3)N2C1 [Example 65],> 400
2,COC(=O)/C=C/[C@]1(CC2=C(c3ccn(C(F)F)n3)[C@H](c3ccc(F)cc3Cl)N=C(c3nccs3)N2)COC(=O)N1 [Example 105],> 400
3,COC(=O)OC[C@]1(N=[N+]=[N-])CC2=C(c3cnn(C(F)F)c3)[C@H](c3ccc(F)cc3Cl)N=C(c3nccs3)N2C1 [Example 54],> 400
4,CC(C)(C)OC(=O)NC[C@H]1CCC(=O)N1CC1=C(c2ccn(C(F)F)n2)[C@H](c2ccc(F)cc2Cl)N=C(c2nccs2)N1 [Example 130],> 400
5,COC(=O)[C@@](N)(CO)CC1=C(c2ccn(C(F)F)n2)[C@H](c2ccc(F)cc2Cl)N=C(c2nccs2)N1 [Example 92],> 400
6,COC(=O)NC[C@H]1CN(CC2=C(c3ccn(C(F)F)n3)[C@H](c3ccc(F)cc3Cl)N=C(c3nccs3)N2)C(=O)O1 [Example 125],> 400
7,O=S(=O)(N[C@H]1CC2=C(c3cc[nH]n3)[C@H](c3ccc(F)cc3Cl)N=C(c3nccs3)N2C1)C1CC1 [Example 4],> 100
8,COC(=O)[C@](N)(CO)CC1=C(c2ccn(C(F)F)n2)[C@H](c2ccc(F)cc2Cl)N=C(c2nccs2)N1 [Example 62],> 400
9,COC(=O)[C@@]1(NS(=O)(=O)C2CC2)CC2=C(c3ccn(C(F)F)n3)[C@H](c3ccc(F)cc3Cl)N=C(c3nccs3)N2C1 [Example 68],> 400
10,C[C@@]1(CN=[N+]=[N-])CC2=C(c3cnn(C(F)F)c3)[C@H](c3ccc(F)cc3Cl)N=C(c3nccs3)N2C1 [Example 37],> 400
11,CCOC(=O)NC[C@@H]1CN(CC2=C(c3ccn(C(F)F)n3)[C@H](c3ccc(F)cc3Cl)N=C(c3nccs3)N2)C(=O)O1 [Example 129],> 400
12,C[C@]1(CN=[N+]=[N-])CC2=C(c3cnn(C(F)F)c3)[C@H](c3ccc(F)cc3Cl)N=C(c3nccs3)N2C1 [Example 36],> 400
13,CNC(=O)OC[C@]1(CC2=C(c3ccn(C(F)F)n3)[C@H](c3ccc(F)cc3Cl)N=C(c3nccs3)N2)COC(=O)N1 [Example 98],> 400
14,COC(=O)[C@]1(O)CC2=C(c3ccn(C(F)F)n3)[C@H](c3ccc(F)cc3Cl)N=C(c3nccs3)N2C1 [Example 121],> 400
15,O=C1N[C@](CO)(CC2=C(c3ccn(C(F)F)n3)[C@H](c3ccc(F)cc3Cl)N=C(c3nccs3)N2)CO1 [Example 90],> 400
16,COC(=O)NC[C@@H]1CN(CC2=C(c3ccn(C(F)F)n3)[C@H](c3ccc(F)cc3Cl)N=C(c3nccs3)N2)C(=O)O1 [Example 128],> 400
17,COC(=O)N[C@@]1(C(=O)OC)CC2=C(c3ccn(C(F)F)n3)[C@H](c3ccc(F)cc3Cl)N=C(c3nccs3)N2C1 [Example 82],> 400
18,COC(=O)N[C@]1(COC(=O)NCC(=O)O)CC2=C(c3ccn(C(F)F)n3)[C@H](c3ccc(F)cc3Cl)N=C(c3nccs3)N2C1 [Example 77],> 400
19,OCC(F)(F)CC1=C(c2cnn(C(F)F)c2)[C@H](c2ccc(F)cc2Cl)N=C(c2nccs2)N1 [Example 147],> 400
20,O=C(N[C@H]1CC2=C(c3cnn(C(F)F)c3)[C@H](c3ccc(F)cc3Cl)N=C(c3nccs3)N2C1)NS(=O)(=O)c1ccccc1 [Example 17],> 100
